Results from ChEMBL document CHEMBL4804284.
Activity calls are given as the source filed them. The calls are words filed in the database; no cut-off is given here.

Experiments:
[1] = target: Insulin-like growth factor 1 receptor (Homo sapiens) (UniProt P08069); assay: Inhibition of DNA-tagged human IGF1R assessed as percent of control at 50000 nM by qPCR analysis relative to control; set-up: scale not given: the % may be the effect or the level left
[2] = target: Serine/threonine-protein kinase ICK (Homo sapiens) (UniProt Q9UPZ9); assay: Inhibition of DNA-tagged human ICK assessed as percent of control at 50000 nM by qPCR analysis relative to control; set-up: scale not given: the % may be the effect or the level left
[3] = system: Receptor-type tyrosine-protein kinase FLT3 (Homo sapiens), P36888 [D835Y]; assay: Inhibition of DNA-tagged human FLT3 D835Y mutant assessed as percent of control at 50000 nM by qPCR analysis relative to control; set-up: scale not given: the % may be the effect or the level left
[4] = target: Fibroblast growth factor receptor 4 (Homo sapiens) (UniProt P22455); assay: Inhibition of DNA-tagged human FGFR4 assessed as percent of control at 50000 nM by qPCR analysis relative to control; set-up: scale not given: the % may be the effect or the level left
Chain of Fibroblast growth factor receptor 4 (Homo sapiens) (P22455 22-802 limits assumed): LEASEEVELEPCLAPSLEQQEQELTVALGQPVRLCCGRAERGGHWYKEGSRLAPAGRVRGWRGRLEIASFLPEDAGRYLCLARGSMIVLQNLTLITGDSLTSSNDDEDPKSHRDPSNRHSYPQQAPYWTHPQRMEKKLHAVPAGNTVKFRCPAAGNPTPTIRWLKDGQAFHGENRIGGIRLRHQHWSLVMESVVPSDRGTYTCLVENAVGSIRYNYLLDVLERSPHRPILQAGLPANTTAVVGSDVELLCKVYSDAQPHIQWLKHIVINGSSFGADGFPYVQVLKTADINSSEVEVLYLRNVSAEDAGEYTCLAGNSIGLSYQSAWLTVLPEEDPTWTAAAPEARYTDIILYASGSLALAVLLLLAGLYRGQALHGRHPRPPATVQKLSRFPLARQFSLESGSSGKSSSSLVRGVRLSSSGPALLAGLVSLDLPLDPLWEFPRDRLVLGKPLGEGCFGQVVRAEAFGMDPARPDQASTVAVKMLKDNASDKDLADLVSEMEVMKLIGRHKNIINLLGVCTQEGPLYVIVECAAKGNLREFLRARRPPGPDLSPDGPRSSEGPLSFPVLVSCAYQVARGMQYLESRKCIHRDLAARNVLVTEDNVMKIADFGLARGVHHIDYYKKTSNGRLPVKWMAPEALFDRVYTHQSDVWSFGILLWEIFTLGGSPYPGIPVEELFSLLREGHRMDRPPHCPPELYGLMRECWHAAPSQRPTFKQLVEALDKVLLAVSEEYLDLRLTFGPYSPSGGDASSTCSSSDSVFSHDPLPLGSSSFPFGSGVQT

[5] = target: Tyrosine-protein kinase Fes/Fps (Homo sapiens) (UniProt P07332); assay: Inhibition of DNA-tagged human FES assessed as percent of control at 50000 nM by qPCR analysis relative to control; set-up: scale not given: the % may be the effect or the level left
[6] = target: Receptor tyrosine-protein kinase erbB-4 (Homo sapiens) (UniProt Q15303); assay: Inhibition of DNA-tagged human ERBB4 assessed as percent of control at 50000 nM by qPCR analysis relative to control; set-up: scale not given: the % may be the effect or the level left
[7] = system: Epidermal growth factor receptor (Homo sapiens), P00533 [UNDEFINED MUTATION]; assay: Inhibition of DNA-tagged human EGFR L747-E749del/A750P double mutant assessed as percent of control at 50000 nM by qPCR analysis relative to control; set-up: scale not given: the % may be the effect or the level left
Chain of Epidermal growth factor receptor (Homo sapiens), P00533 [UNDEFINED MUTATION] (P00533 whole entry, looked up, stated change not applied): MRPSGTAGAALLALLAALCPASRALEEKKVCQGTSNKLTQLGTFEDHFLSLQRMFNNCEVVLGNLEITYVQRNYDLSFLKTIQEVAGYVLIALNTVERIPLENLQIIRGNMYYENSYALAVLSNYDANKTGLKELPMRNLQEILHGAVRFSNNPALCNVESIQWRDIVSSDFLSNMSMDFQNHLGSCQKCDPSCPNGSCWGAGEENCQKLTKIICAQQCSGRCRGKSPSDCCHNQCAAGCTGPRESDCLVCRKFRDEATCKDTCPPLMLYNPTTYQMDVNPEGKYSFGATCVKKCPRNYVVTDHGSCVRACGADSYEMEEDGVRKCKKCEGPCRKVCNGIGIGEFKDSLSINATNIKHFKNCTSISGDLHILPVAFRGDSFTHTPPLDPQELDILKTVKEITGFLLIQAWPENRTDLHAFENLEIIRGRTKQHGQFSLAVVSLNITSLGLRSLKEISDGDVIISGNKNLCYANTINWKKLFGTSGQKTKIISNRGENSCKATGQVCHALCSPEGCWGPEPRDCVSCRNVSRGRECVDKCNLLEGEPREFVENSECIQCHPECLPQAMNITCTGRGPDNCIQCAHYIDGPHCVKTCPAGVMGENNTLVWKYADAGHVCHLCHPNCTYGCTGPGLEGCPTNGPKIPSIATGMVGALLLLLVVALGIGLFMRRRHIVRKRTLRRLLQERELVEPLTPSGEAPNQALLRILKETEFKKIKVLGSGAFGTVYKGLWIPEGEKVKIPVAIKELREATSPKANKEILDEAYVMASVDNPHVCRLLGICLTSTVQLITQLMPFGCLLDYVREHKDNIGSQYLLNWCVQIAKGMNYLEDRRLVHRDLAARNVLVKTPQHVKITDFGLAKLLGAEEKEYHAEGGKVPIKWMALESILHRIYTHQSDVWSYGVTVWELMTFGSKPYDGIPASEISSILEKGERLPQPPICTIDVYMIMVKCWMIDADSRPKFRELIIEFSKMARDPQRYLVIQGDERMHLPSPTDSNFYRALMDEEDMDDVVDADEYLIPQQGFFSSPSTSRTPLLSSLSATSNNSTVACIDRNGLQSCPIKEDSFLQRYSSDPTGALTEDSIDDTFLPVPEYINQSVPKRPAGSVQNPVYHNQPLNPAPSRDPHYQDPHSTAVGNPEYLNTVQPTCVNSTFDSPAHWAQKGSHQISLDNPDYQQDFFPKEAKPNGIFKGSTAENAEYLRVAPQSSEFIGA

[8] = target: Serine/threonine-protein kinase MRCK gamma (Homo sapiens) (UniProt Q6DT37); assay: Inhibition of DNA-tagged human DMPK2 assessed as percent of control at 50000 nM by qPCR analysis relative to control; set-up: scale not given: the % may be the effect or the level left
[9] = target: Dual specificity protein kinase CLK3 (Homo sapiens) (UniProt P49761); assay: Inhibition of DNA-tagged human CLK3 assessed as percent of control at 50000 nM by qPCR analysis relative to control; set-up: scale not given: the % may be the effect or the level left
[10] = target: Calcium/calmodulin-dependent protein kinase type 1 (Homo sapiens) (UniProt Q14012); assay: Inhibition of DNA-tagged human CAMK1 assessed as percent of control at 50000 nM by qPCR analysis relative to control; set-up: scale not given: the % may be the effect or the level left
[11] = system: Serine/threonine-protein kinase B-raf (Homo sapiens), P15056 [V600E]; assay: Inhibition of DNA-tagged human BRAF V600E mutant assessed as percent of control at 50000 nM by qPCR analysis relative to control; set-up: scale not given: the % may be the effect or the level left
[12] = target: Activin receptor type-2B (Homo sapiens) (UniProt Q13705); assay: Inhibition of DNA-tagged human ACVR2B assessed as percent of control at 50000 nM by qPCR analysis relative to control; set-up: scale not given: the % may be the effect or the level left
[13] = system: Tyrosine-protein kinase ABL1 (Homo sapiens), P00519 [T315I]; assay: Inhibition of DNA-tagged non-phosphorylated human ABL1 T315I mutant assessed as percent of control at 50000 nM by qPCR analysis relative to control; set-up: scale not given: the % may be the effect or the level left
[14] = system: Tyrosine-protein kinase ABL1 (Homo sapiens), P00519 [T315I]; assay: Inhibition of DNA-tagged phosphorylated human ABL1 T315I mutant assessed as percent of control at 50000 nM by qPCR analysis relative to control; set-up: scale not given: the % may be the effect or the level left
[15] = target: AP2-associated protein kinase 1 (Homo sapiens) (UniProt Q2M2I8); assay: Inhibition of DNA-tagged human AAK1 assessed as percent of control at 50000 nM by qPCR analysis relative to control; set-up: scale not given: the % may be the effect or the level left
MV4-11 = assay: Cytotoxicity against human MV4-11 cells at 0.1-100 uM assessed as decrease in cell viability relative to control; assay type: functional, cell-based
[16] = target: Leucine-rich repeat serine/threonine-protein kinase 2 (Homo sapiens) (UniProt Q5S007); assay: Inhibition of DNA-tagged human LRRK2 assessed as percent of control at 50000 nM by qPCR analysis relative to control; set-up: scale not given: the % may be the effect or the level left
[17] = target: Mitogen-activated protein kinase kinase kinase kinase 5 (Homo sapiens) (UniProt Q9Y4K4); assay: Inhibition of DNA-tagged human MAP4K5 assessed as percent of control at 50000 nM by qPCR analysis relative to control; set-up: scale not given: the % may be the effect or the level left
[18] = target: Serine/threonine-protein kinase MARK2 (Homo sapiens) (UniProt Q7KZI7); assay: Inhibition of DNA-tagged human MARK2 assessed as percent of control at 50000 nM by qPCR analysis relative to control; set-up: scale not given: the % may be the effect or the level left
[19] = target: Dual specificity mitogen-activated protein kinase kinase 6 (Homo sapiens) (UniProt P52564); assay: Inhibition of DNA-tagged human MEK6 assessed as percent of control at 50000 nM by qPCR analysis relative to control; set-up: scale not given: the % may be the effect or the level left
[20] = target: Myosin light chain kinase family member 4 (Homo sapiens) (UniProt Q86YV6); assay: Inhibition of DNA-tagged human MYLK4 assessed as percent of control at 50000 nM by qPCR analysis relative to control; set-up: scale not given: the % may be the effect or the level left
[21] = target: Serine/threonine-protein kinase Nek1 (Homo sapiens) (UniProt Q96PY6); assay: Inhibition of DNA-tagged human NEK1 assessed as percent of control at 50000 nM by qPCR analysis relative to control; set-up: scale not given: the % may be the effect or the level left
[22] = target: Mitogen-activated protein kinase 14 (Homo sapiens) (UniProt Q16539); assay: Inhibition of DNA-tagged human p38-alpha assessed as percent of control at 50000 nM by qPCR analysis relative to control; set-up: scale not given: the % may be the effect or the level left
[23] = target: Interferon-induced, double-stranded RNA-activated protein kinase (Homo sapiens) (UniProt P19525); assay: Inhibition of DNA-tagged human PRKR assessed as percent of control at 50000 nM by qPCR analysis relative to control; set-up: scale not given: the % may be the effect or the level left
Chain of Interferon-induced, double-stranded RNA-activated protein kinase (Homo sapiens) (P19525 whole entry): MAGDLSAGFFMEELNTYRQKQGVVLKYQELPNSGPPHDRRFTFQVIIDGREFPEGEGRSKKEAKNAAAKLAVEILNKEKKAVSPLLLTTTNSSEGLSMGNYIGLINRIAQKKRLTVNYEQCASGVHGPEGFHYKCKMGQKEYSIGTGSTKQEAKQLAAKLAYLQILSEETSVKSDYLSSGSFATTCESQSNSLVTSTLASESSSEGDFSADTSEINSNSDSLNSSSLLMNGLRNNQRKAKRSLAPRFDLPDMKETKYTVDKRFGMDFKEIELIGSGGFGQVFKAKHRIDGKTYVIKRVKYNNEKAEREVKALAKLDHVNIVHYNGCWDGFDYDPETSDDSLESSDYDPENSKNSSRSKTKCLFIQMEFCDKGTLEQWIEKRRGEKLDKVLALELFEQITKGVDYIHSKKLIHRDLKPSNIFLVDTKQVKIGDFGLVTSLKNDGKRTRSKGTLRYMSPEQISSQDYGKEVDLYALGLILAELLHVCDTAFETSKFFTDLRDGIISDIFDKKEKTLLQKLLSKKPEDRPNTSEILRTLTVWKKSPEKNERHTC

[24] = target: Protein-tyrosine kinase 2-beta (Homo sapiens) (UniProt Q14289); assay: Inhibition of DNA-tagged human PYK2 assessed as percent of control at 50000 nM by qPCR analysis relative to control; set-up: scale not given: the % may be the effect or the level left
Chain of Protein-tyrosine kinase 2-beta (Homo sapiens) (Q14289 whole entry, looked up, the tested form may be a part): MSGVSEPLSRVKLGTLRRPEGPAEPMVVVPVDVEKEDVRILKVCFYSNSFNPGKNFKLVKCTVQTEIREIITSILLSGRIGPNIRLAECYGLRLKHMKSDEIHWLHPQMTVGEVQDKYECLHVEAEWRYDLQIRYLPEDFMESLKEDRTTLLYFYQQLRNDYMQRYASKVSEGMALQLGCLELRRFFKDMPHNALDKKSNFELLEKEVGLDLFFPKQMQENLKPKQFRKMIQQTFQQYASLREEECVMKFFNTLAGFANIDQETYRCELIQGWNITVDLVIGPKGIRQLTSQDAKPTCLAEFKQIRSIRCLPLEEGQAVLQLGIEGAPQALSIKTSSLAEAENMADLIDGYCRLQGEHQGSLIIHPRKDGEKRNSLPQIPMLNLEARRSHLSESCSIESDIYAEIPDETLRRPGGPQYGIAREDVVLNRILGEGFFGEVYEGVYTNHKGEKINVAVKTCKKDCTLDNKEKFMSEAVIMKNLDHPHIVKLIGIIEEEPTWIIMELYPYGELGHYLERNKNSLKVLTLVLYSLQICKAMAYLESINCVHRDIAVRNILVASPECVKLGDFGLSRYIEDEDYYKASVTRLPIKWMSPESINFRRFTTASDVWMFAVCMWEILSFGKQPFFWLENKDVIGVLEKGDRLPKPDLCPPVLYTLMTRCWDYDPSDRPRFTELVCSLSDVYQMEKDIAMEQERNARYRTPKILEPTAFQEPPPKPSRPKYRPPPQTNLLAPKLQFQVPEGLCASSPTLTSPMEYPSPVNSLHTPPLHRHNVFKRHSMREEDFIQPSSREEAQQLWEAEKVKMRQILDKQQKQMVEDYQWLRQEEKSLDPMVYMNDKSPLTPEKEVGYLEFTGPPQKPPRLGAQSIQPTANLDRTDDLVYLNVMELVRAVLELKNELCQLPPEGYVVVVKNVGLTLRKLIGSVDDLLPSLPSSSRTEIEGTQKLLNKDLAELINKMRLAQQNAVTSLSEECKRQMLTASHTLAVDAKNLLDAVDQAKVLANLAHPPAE

[25] = target: Ribosomal protein S6 kinase alpha-1 (Homo sapiens) (UniProt Q15418); assay: Inhibition of DNA-tagged human N-terminal RSK1 kinase domain 1 assessed as percent of control at 50000 nM by qPCR analysis relative to control; set-up: scale not given: the % may be the effect or the level left
[26] = target: Serine/threonine-protein kinase 35 (Homo sapiens) (UniProt Q8TDR2); assay: Inhibition of DNA-tagged human STK35 assessed as percent of control at 50000 nM by qPCR analysis relative to control; set-up: scale not given: the % may be the effect or the level left
Chain of Serine/threonine-protein kinase 35 (Homo sapiens) (Q8TDR2 whole entry): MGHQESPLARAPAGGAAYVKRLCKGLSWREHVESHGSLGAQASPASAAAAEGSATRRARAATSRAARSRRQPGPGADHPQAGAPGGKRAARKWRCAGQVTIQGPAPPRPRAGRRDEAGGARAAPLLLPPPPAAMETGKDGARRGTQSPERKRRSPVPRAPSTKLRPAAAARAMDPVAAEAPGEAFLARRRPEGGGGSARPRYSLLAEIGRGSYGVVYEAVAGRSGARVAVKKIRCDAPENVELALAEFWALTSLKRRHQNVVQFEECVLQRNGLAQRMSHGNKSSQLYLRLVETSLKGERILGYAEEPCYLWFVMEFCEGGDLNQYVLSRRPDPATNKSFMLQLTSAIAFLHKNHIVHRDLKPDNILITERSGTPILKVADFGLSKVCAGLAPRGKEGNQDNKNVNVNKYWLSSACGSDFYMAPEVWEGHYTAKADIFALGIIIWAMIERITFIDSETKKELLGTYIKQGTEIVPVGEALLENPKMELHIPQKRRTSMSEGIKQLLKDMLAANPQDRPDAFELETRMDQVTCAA

[27] = target: Serine/threonine-protein kinase tousled-like 1 (Homo sapiens) (UniProt Q9UKI8); assay: Inhibition of DNA-tagged human TLK1 assessed as percent of control at 50000 nM by qPCR analysis relative to control; set-up: scale not given: the % may be the effect or the level left
[28] = target: Serine/threonine-protein kinase tousled-like 2 (Homo sapiens) (UniProt Q86UE8); assay: Inhibition of DNA-tagged human TLK2 assessed as percent of control at 50000 nM by qPCR analysis relative to control; set-up: scale not given: the % may be the effect or the level left
Chain of Serine/threonine-protein kinase tousled-like 2 (Homo sapiens) (Q86UE8 whole entry, looked up): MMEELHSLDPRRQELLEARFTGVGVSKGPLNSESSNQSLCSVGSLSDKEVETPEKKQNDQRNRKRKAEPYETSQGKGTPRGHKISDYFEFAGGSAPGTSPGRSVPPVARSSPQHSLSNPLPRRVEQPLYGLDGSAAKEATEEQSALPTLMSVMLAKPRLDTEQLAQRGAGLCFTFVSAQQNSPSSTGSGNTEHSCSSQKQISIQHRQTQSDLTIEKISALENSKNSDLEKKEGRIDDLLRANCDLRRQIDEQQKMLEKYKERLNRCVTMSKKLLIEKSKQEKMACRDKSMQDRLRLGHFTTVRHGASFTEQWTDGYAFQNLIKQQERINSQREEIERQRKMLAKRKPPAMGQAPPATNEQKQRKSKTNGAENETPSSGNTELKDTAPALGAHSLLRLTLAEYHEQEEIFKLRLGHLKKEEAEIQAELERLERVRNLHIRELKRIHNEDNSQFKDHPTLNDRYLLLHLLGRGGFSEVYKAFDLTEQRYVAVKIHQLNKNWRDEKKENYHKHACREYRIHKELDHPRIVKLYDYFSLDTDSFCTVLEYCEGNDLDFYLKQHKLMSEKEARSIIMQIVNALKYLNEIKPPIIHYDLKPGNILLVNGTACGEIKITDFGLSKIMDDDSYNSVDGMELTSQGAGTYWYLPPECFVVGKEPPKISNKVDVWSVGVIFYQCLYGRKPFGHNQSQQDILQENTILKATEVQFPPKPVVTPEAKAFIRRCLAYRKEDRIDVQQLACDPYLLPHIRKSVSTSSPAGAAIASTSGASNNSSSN

[29] = target: TRAF2 and NCK-interacting protein kinase (Homo sapiens) (UniProt Q9UKE5); assay: Inhibition of DNA-tagged human TNIK assessed as percent of control at 50000 nM by qPCR analysis relative to control; set-up: scale not given: the % may be the effect or the level left

## CN1C(=O)/C(=C2/C(=O)Nc3ccccc32)c2ccccc21
[1]
  Activity: 100%
[2]
  Activity: 92%
[3]
  Activity: 75%
[4]
  Activity: 100%
[5]
  Activity: 95%
[6]
  Activity: 88%
[7]
  Activity: 83%
[8]
  Activity: 92%
[9]
  Activity: 100%
[10]
  Activity: 88%
[11]
  Activity: 72%
[12]
  Activity: 100%
[13]
  Activity: 94%
[14]
  Activity: 98%
[15]
  Activity: 91%
MV4-11
  Activity: Active
[16]
  Activity: 96%
[17]
  Activity: 100%
[18]
  Activity: 75%
[19]
  Activity: 100%
[20]
  Activity: 87%
[21]
  Activity: 92%
[22]
  Activity: 100%
[23]
  Activity: 80%
[24]
  Activity: 100%
[25]
  Activity: 96%
[26]
  Activity: 89%
[27]
  Activity: 81%
[28]
  Activity: 88%
[29]
  Activity: 100%
